According to ChEMBL document CHEMBL3885881, “DrugMatrix”:

Species on record: Rattus norvegicus
Assay: DrugMatrix - Regimen: Daily Repeat
Type: toxicity, organism-based, Sprague-Dawley
Parameters: regimen Daily Repeat, gender Male, age 6-8 weeks
Settings: in vivo, po, route oral GAVAGE, […]; for ABSOLUTE BASOPHIL / ABSOLUTE EOSINOPHIL / ABSOLUTE LYMPHOCYTE / ABSOLUTE MONOCYTE / ABSOLUTE SEGMENTED NEUTROPHIL / BASOPHIL / EOSINOPHIL / ERYTHROCYTE COUNT / HEMATOCRIT / HEMOGLOBIN / LEUKOCYTE COUNT / LYMPHOCYTE / MEAN CORPUSCULAR HEMOGLOBIN / MEAN CORPUSCULAR HEMOGLOBIN CONCENTRATION / MEAN CORPUSCULAR VOLUME / MONOCYTE / NEUTROPHIL / NUCLEATED RED BLOOD CELLS / PLATELET COUNT: tissue Blood; for ALANINE AMINOTRANSFERASE / ALBUMIN / ALKALINE PHOSPHATASE / ASPARTATE AMINOTRANSFERASE / BLOOD UREA NITROGEN / CARBON DIOXIDE / CHLORIDE / CHOLESTEROL / CREATINE PHOSPHOKINASE / CREATININE / GLUCOSE / LACTATE DEHYDROGENASE / LIPASE / PHOSPHORUS / POTASSIUM / SODIUM / TOTAL BILIRUBIN / TOTAL PROTEIN / URIC ACID: tissue Plasma
[1] = 0 mg/kg, 72 h, dose level Control, time 3 day
[2] = 0 mg/kg, 120 h, dose level Control, time 5 day
[3] = 15 mg/kg, 72 h, dose level Low, time 3 day
[4] = 15 mg/kg, 120 h, dose level Low, time 5 day

CC(C)C(=O)Nc1ccc([N+](=O)[O-])c(C(F)(F)F)c1 [FLUTAMIDE]
ABSOLUTE BASOPHIL [1]: 0 CELLS/uL | ABSOLUTE EOSINOPHIL [1]: 13.67 CELLS/uL | ABSOLUTE LYMPHOCYTE [1]: 10069.5 CELLS/uL | ABSOLUTE MONOCYTE [1]: 50 CELLS/uL | ABSOLUTE SEGMENTED NEUTROPHIL [1]: 516.83 CELLS/uL | BASOPHIL [1]: 0% | EOSINOPHIL [1]: 0.17% | ERYTHROCYTE COUNT [1]: 5.44 x10E6/uL | HEMATOCRIT [1]: 33.88% | HEMOGLOBIN [1]: 13.23 G/DL | LEUKOCYTE COUNT [1]: 10.65 x10E3/uL | LYMPHOCYTE [1]: 94.67% | MEAN CORPUSCULAR HEMOGLOBIN [1]: 24.37 pg | MEAN CORPUSCULAR HEMOGLOBIN CONCENTRATION [1]: 39.05 G/DL | MEAN CORPUSCULAR VOLUME [1]: 62.38 fL | MONOCYTE [1]: 0.67% | NEUTROPHIL [1]: 4.5% | NUCLEATED RED BLOOD CELLS [1]: 0.33 /100WBC | PLATELET COUNT [1]: 414.5 x10E3/uL | ALANINE AMINOTRANSFERASE [1]: 72 u/L | ALBUMIN [1]: 3.75 G/DL | ALKALINE PHOSPHATASE [1]: 375 u/L | ASPARTATE AMINOTRANSFERASE [1]: 87.5 u/L | BLOOD UREA NITROGEN [1]: 14 mg/dL | CARBON DIOXIDE [1]: 27.5 mmol/L | CHLORIDE [1]: 95.83 MEQ/L | CHOLESTEROL [1]: 68.5 mg/dL | CREATINE PHOSPHOKINASE [1]: 284.33 u/L | CREATININE [1]: 0.16 mg/dL | GLUCOSE [1]: 156.67 mg/dL | LACTATE DEHYDROGENASE [1]: 101.83 u/L | LIPASE [1]: 9.67 u/L | PHOSPHORUS [1]: 10.33 mg/dL | POTASSIUM [1]: 5.22 MEQ/L | SODIUM [1]: 137.67 MEQ/L | TOTAL BILIRUBIN [1]: 0.13 mg/dL | TOTAL PROTEIN [1]: 5.43 G/DL | URIC ACID [1]: 0.8 mg/dL | ABSOLUTE BASOPHIL [2]: 0 CELLS/uL | ABSOLUTE EOSINOPHIL [2]: 20.67 CELLS/uL | ABSOLUTE LYMPHOCYTE [2]: 11518.33 CELLS/uL | ABSOLUTE MONOCYTE [2]: 47 CELLS/uL | ABSOLUTE SEGMENTED NEUTROPHIL [2]: 614 CELLS/uL | BASOPHIL [2]: 0% | EOSINOPHIL [2]: 0.17% | ERYTHROCYTE COUNT [2]: 5.61 x10E6/uL | HEMATOCRIT [2]: 34.25% | HEMOGLOBIN [2]: 13.38 G/DL | LEUKOCYTE COUNT [2]: 12.2 x10E3/uL | LYMPHOCYTE [2]: 94.33% | MEAN CORPUSCULAR HEMOGLOBIN [2]: 23.83 pg | MEAN CORPUSCULAR HEMOGLOBIN CONCENTRATION [2]: 39.08 G/DL | MEAN CORPUSCULAR VOLUME [2]: 61.03 fL | MONOCYTE [2]: 0.33% | NEUTROPHIL [2]: 5.17% | NUCLEATED RED BLOOD CELLS [2]: 0 /100WBC | PLATELET COUNT [2]: 941.83 x10E3/uL | ALANINE AMINOTRANSFERASE [2]: 68.83 u/L | ALBUMIN [2]: 4.12 G/DL | ALKALINE PHOSPHATASE [2]: 492.67 u/L | ASPARTATE AMINOTRANSFERASE [2]: 83.33 u/L | BLOOD UREA NITROGEN [2]: 14 mg/dL | CARBON DIOXIDE [2]: 37 mmol/L | CHLORIDE [2]: 98.67 MEQ/L | CHOLESTEROL [2]: 56.5 mg/dL | CREATINE PHOSPHOKINASE [2]: 167.33 u/L | CREATININE [2]: 0.17 mg/dL | GLUCOSE [2]: 157.5 mg/dL | LACTATE DEHYDROGENASE [2]: 104.83 u/L | LIPASE [2]: 10 u/L | PHOSPHORUS [2]: 10.43 mg/dL | POTASSIUM [2]: 5.46 MEQ/L | SODIUM [2]: 143.87 MEQ/L | TOTAL BILIRUBIN [2]: 0.17 mg/dL | TOTAL PROTEIN [2]: 5.72 G/DL | URIC ACID [2]: 0.85 mg/dL | ABSOLUTE BASOPHIL [3]: 0 CELLS/uL | ABSOLUTE EOSINOPHIL [3]: 10.67 CELLS/uL | ABSOLUTE LYMPHOCYTE [3]: 6470.33 CELLS/uL | ABSOLUTE MONOCYTE [3]: 86 CELLS/uL | ABSOLUTE SEGMENTED NEUTROPHIL [3]: 599.67 CELLS/uL | BASOPHIL [3]: 0% | EOSINOPHIL [3]: 0.33% | ERYTHROCYTE COUNT [3]: 5.25 x10E6/uL | HEMATOCRIT [3]: 32.9% | HEMOGLOBIN [3]: 13.03 G/DL | LEUKOCYTE COUNT [3]: 7.17 x10E3/uL | LYMPHOCYTE [3]: 91.67% | MEAN CORPUSCULAR HEMOGLOBIN [3]: 24.87 pg | MEAN CORPUSCULAR HEMOGLOBIN CONCENTRATION [3]: 39.6 G/DL | MEAN CORPUSCULAR VOLUME [3]: 62.8 fL | MONOCYTE [3]: 1% | NEUTROPHIL [3]: 7% | NUCLEATED RED BLOOD CELLS [3]: 0 /100WBC | PLATELET COUNT [3]: 851.33 x10E3/uL | ALANINE AMINOTRANSFERASE [3]: 92 u/L | ALBUMIN [3]: 3.97 G/DL | ALKALINE PHOSPHATASE [3]: 441.67 u/L | ASPARTATE AMINOTRANSFERASE [3]: 111 u/L | BLOOD UREA NITROGEN [3]: 12.33 mg/dL | CARBON DIOXIDE [3]: 27.67 mmol/L | CHLORIDE [3]: 95.5 MEQ/L | CHOLESTEROL [3]: 77.67 mg/dL | CREATINE PHOSPHOKINASE [3]: 476.67 u/L | CREATININE [3]: 0.33 mg/dL | GLUCOSE [3]: 152 mg/dL | LACTATE DEHYDROGENASE [3]: 156.33 u/L | LIPASE [3]: 13.67 u/L | PHOSPHORUS [3]: 9.97 mg/dL | POTASSIUM [3]: 5.27 MEQ/L | SODIUM [3]: 138.85 MEQ/L | TOTAL BILIRUBIN [3]: 0.17 mg/dL | TOTAL PROTEIN [3]: 5.23 G/DL | URIC ACID [3]: 0.7 mg/dL | ABSOLUTE BASOPHIL [4]: 0 CELLS/uL | ABSOLUTE EOSINOPHIL [4]: 0 CELLS/uL | ABSOLUTE LYMPHOCYTE [4]: 8137.67 CELLS/uL | ABSOLUTE MONOCYTE [4]: 25 CELLS/uL | ABSOLUTE SEGMENTED NEUTROPHIL [4]: 504 CELLS/uL | BASOPHIL [4]: 0% | EOSINOPHIL [4]: 0% | ERYTHROCYTE COUNT [4]: 6.06 x10E6/uL | HEMATOCRIT [4]: 36.17% | HEMOGLOBIN [4]: 13.93 G/DL | LEUKOCYTE COUNT [4]: 8.67 x10E3/uL | LYMPHOCYTE [4]: 94% | MEAN CORPUSCULAR HEMOGLOBIN [4]: 23.03 pg | MEAN CORPUSCULAR HEMOGLOBIN CONCENTRATION [4]: 38.53 G/DL | MEAN CORPUSCULAR VOLUME [4]: 59.7 fL | MONOCYTE [4]: 0.33% | NEUTROPHIL [4]: 5.67% | NUCLEATED RED BLOOD CELLS [4]: 0 /100WBC | PLATELET COUNT [4]: 1066.67 x10E3/uL | ALANINE AMINOTRANSFERASE [4]: 57 u/L | ALBUMIN [4]: 4.03 G/DL | ALKALINE PHOSPHATASE [4]: 326.67 u/L | ASPARTATE AMINOTRANSFERASE [4]: 78 u/L | BLOOD UREA NITROGEN [4]: 13.33 mg/dL | CARBON DIOXIDE [4]: 35.67 mmol/L | CHLORIDE [4]: 99.33 MEQ/L | CHOLESTEROL [4]: 75 mg/dL | CREATINE PHOSPHOKINASE [4]: 234.33 u/L | CREATININE [4]: 0.18 mg/dL | GLUCOSE [4]: 140 mg/dL | LACTATE DEHYDROGENASE [4]: 135.33 u/L | LIPASE [4]: 9.67 u/L | PHOSPHORUS [4]: 10.43 mg/dL | POTASSIUM [4]: 5.86 MEQ/L | SODIUM [4]: 143.57 MEQ/L | TOTAL BILIRUBIN [4]: 0.23 mg/dL | TOTAL PROTEIN [4]: 5.83 G/DL | URIC ACID [4]: 0.67 mg/dL
